Data from patent US9375002B2, “5-aminopyrimidine derivatives and use thereof for combating undesired plant growth” (BAYER INTELLECTUAL PROPERTY GMBH, priority 2012, dated 2016).

What was measured:
Stellaria media [1] = experiment: Pre-emergence herbicidal effect; assay type: in vivo; settings: 1280 g/ha, visual assessment after 3 weeks
Source text: (§1) 1. Pre-Emergence Herbicidal Effect and Crop Plant Compatibility Seeds of monocotyledonous and dicotyledonous weed plants and crop plants are placed in wood-fiber pots in sandy loam and covered with soil. The inventive compounds, formulated in the form of wettable powders (WP) or as emulsion concentrates (EC), are then applied to the surface of the covering soil as an aqueous suspension or emulsion at a water application rate of 600 to 800 I/ha (converted) with addition of 0.2% wetting agent. After the treatment, the pots are placed in a greenhouse and kept under good growth conditions for the test plants. The damage to the test plants is assessed visually after a test period of 3 weeks by comparison with untreated controls (herbicidal activity in percent (%): 100% action=the plants have died, 0% action=like control plants). STEME: Stellaria media VERPE: Veronica persica

Veronica persica [2] = experiment: Pre-emergence herbicidal effect; assay type: in vivo; settings: 1280 g/ha, visual assessment after 3 weeks
Source text: as §1

Polygonum convolvulus = experiment: Post-emergence herbicidal effect; assay type: in vivo; settings: 1280 g/ha, visual rating after about 3 weeks
Experimental: (§2) POLCO: Polygonum convolvulus SETVI: Setaria viridis 2. Post-Emergence Herbicidal Effect and Crop Plant Compatibility Seeds of monocotyledonous and dicotyledonous weed and crop plants are placed in sandy loam in wood-fiber pots, covered with soil and cultivated in a greenhouse under good growth conditions. 2 to 3 weeks after sowing, the test plants are treated at the one-leaf stage. The compounds according to the invention, formulated in the form of wettable powders (WP) or as emulsion concentrates (EC), are then sprayed as aqueous suspension or emulsion at a water application rate of 600 to 800 I/ha (converted) with the addition of 0.2% of wetting agent onto the green parts of the plants. After the test plants have been kept in the greenhouse under optimum growth conditions for about 3 weeks, the activity of the preparations is rated visually in comparison to untreated controls (herbicidal activity in percent (%): 100% activity=the plants have died, 0% activity=like control plants).

Viola tricolor = experiment: Post-emergence herbicidal effect; assay type: in vivo; settings: 1280 g/ha, visual rating after about 3 weeks
Experimental: as §2, with “VIOTR: Viola tricolor” for “POLCO: Polygonum convolvulus SETVI: Setaria viridis”

Stellaria media [3] = experiment: Post-emergence herbicidal effect; assay type: in vivo; settings: 1280 g/ha, visual rating after about 3 weeks
Experimental: as §2, with “STEME: Stellaria media VERPE: Veronica persica” for “POLCO: Polygonum convolvulus SETVI: Setaria viridis”

[4] = logp (HCOOH), physicochemical characterization; settings: HCOOH
Amaranthus retroflexus = experiment: Post-emergence herbicidal effect; assay type: in vivo; settings: 1280 g/ha, visual rating after about 3 weeks
Experimental: as §2, with “AMARE: Amaranthus retroflexus ECHCG: Echinochloa crus-galli” for “POLCO: Polygonum convolvulus SETVI: Setaria viridis”

Veronica persica [5] = experiment: Post-emergence herbicidal effect; assay type: in vivo; settings: 1280 g/ha, visual rating after about 3 weeks
Experimental: as §2, with “STEME: Stellaria media VERPE: Veronica persica” for “POLCO: Polygonum convolvulus SETVI: Setaria viridis”

SMILES	herbicidal activity STEME (Stellaria media [1])	herbicidal activity VERPE (Veronica persica [2])	herbicidal activity POLCO (Polygonum convolvulus)	herbicidal activity VIOTR (Viola tricolor)	herbicidal activity STEME (Stellaria media [3])	logp (HCOOH) [4]	herbicidal activity AMARE (Amaranthus retroflexus)	herbicidal activity VERPE (Veronica persica [5])
CCc1ccc2c(c1)C(Nc1cnc(S(C)(=O)=O)nc1C(=O)O)CCO2 (racemic) [compound 68]	100%	100%	80%	80%				
CCc1ccc2c(c1)C(Nc1cnc(S(C)(=O)=O)nc1)CCO2 (racemic) [compound 65]	100%	100%	80%		90%	wax-like; logp (HCOOH): 2.54; 1H-NMR (CDCl3, 400 MHZ, δ in ppm): 1.20 (t, 3H,		
Cc1ccc2c(c1)[C@H](Nc1cnc(S(C)(=O)=O)nc1)[C@@H](C)C2 [compound 134]	100%	100%	90%	90%	100%		80%	90%
